PMC8879074, “A Novel Small Molecular Prostaglandin Receptor EP4 Antagonist, L001, Suppresses Pancreatic Cancer Metastasis” (Molecules, 2022)

Experiments:
[1] = system: YAP/TEAD reporter in BxPC-3 cells; assay: TEAD-driven luciferase reporter assay, BxPC-3; type: cell-based, human; settings: 16 h
Method: (§1) CHO-K1 cells or pancreatic cancer cell lines were transfected with a cAMP responsive element (CRE) reporter or TEAD reporter using lipofectamine 2000 according to the manufacturer’s manual. […] Then, cells were lysed and luciferase activities were determined using Dual-Luciferase Reporter Assay Kit (Promega, Madison, WI, USA).

BxPC-3 cells [2] = assay: Transwell migration assay, BxPC-3; type: cell-based, human; settings: BxPC-3; with PGE2; 24 h
Method: The transwell assay was conducted as described previously, using 8 μm pore transwell inserts (Corning, NY, USA). Cells were suspended in serum-free DMEM and seeded into upper chambers at appropriate density. The bottom chamber was filled with DMEM supplemented with 10% fetal bovine serum and indicated concentrations of PGE2. The compounds were added in both upper and bottom chambers. […] Migrated cells were counted and quantified using image J.

Pan02 cells [3] = assay: Cell viability assay (MTS), Pan02; type: cell-based, murine; settings: 72 h
Method: Cells were seeded into 96-well plates and treated with varied concentrations of compounds for 72 hrs. Cell viabilities were determined by using MTS reagent (Promega, Madison, WI, USA) according to the manufacturer’s manual. Spectrophotometric absorbance at 490 nm was measured by Flexstation® 3 Multi-Mode Microplate Reader (Molecular Devices, San Jose, CA, USA). The experiments were independently repeated three times.

[4] = Body weight of mice in Pan02-Luc metastasis model; type: in vivo, C57BL/6 mice; settings: L001 75 mg/kg p.o. daily; gemcitabine 25 mg/kg i.p. twice a week; n = 6
Method: Male C57/BL6 mice (6–8 weeks) were obtained from the National Rodent Laboratory Animal Resources (NRLAR, Shanghai, China). All mice were housed according to Institutional Animal Care and Use Committee guidelines and under a protocol approved by East China Normal University Ethics Committee with respect to animal care and welfare assurance. The bioluminescent liver metastasis mouse model was established as described previously. In brief, 2 × 10^6 Pan02/luc cells suspended in 50 μL of PBS were injected into mice spleen. […] Tumor metastasis was monitored by using an in vivo imaging system following intraperitoneal injection with D-Luciferin (2 mg per mouse; Promega). Bioluminescence intensity was recorded every seven days by a Xenogen IVIS-200 Optical in vivo imaging system (PerkinElmer; Waltham, MA, USA) for up to 4 weeks. The mouse body weight was measured every other day. Survival curve analysis was performed using GraphPad Prism 7.

EP4 = EP4 (Homo sapiens, UniProt P35408); assay: Calcium flux assay, human EP4; type: cell-based; design: expressed in transfected cells; host or cells: CHO-Gα16
Method: (§2) Calcium flux assay was conducted as described in our previous study. Briefly, CHO-Gα16 cells were transfected, respectively, with human EP1, human EP2, human EP3, human EP4, monkey EP4, mouse EP4 and rat EP4 overexpression constructs using lipofectamine 2000 according to the manufacturer’s manual. Cells were then seeded into a 96-well black plate with a cell density of 2 × 10^4 cells/100 μL per well for a 16-h culture. On the next day, cells were incubated for 45 min with reagents (100 μL/well) of Calcium-5 Assay Kit (Molecular Devices, San Jose, CA, USA). Then, cells were pre-treated with indicated concentrations of L001 for 15 min and stimulated with PGE2 (EC80). The calcium flux was detected subsequently by a Flexstation® 3 Multi-Mode Microplate Reader (Molecular Devices, San Jose, CA, USA).

ERK1/2 phosphorylation = assay: Western blotting of PGE2-induced ERK1/2 phosphorylation; type: cell-based; settings: pre-incubation 20 min, then 30 nM PGE2 for 5 min; dose-dependent
[5] = system: YAP/TEAD reporter in Pan02 cells; assay: TEAD-driven luciferase reporter assay, Pan02; type: cell-based, murine; settings: 16 h
Method: as §1

rat EP4 = target: T1, rat EP4 (Rattus norvegicus, UniProt P43114); assay: Calcium flux assay, rat EP4; type: cell-based
T1 construct: expressed in transfected cells; host or cells: CHO-Gα16
Method: as §2

BxPC-3 cells [6] = assay: Wound healing assay, BxPC-3; type: cell-based, human; settings: 0.1 μM PGE2, 24 h, dose-dependent
Method: The wound healing assay was performed according to a standard protocol as described before. Briefly, Pan02 and BxPC-3 cells were grown as a confluent monolayer in 12-well plates (Corning, Corning, NY, USA) overnight and starved with serum-free medium for 6 h. The monolayer cells were disrupted with a P100 micropipette tip (JET BIOFIL, Guangzhou, China) and rinsed with PBS to remove detached cells. Medium containing different concentrations of compounds was added subsequently. After 24 h, treated cells were stained with 2 μM calcein-AM (Yeasen, Shanghai, China) for 20 min and washed with PBS. Photos were taken of the area in the scraped zone of each dish at 100× magnification by using an inverted fluorescent microscope (OLYMPUS, Tokyo, Japan).

Pan02 cells [7] = assay: 3D Matrigel tumor spheroid invasion assay, Pan02; type: cell-based, murine; settings: 0.1 μM PGE2, day 7
Method: The 3D Matrigel invasion assay was performed as described. Pan02 and BxPC-3 cells were plated above a layer of Matrigel (ThermoFisher, Shanghai, China) and covered with growth medium containing 10% Matrigel. The culture medium containing different concentrations of compounds was changed every two days. After 7 days, cells with stellate invasive structure were photographed (OLYMPUS, Tokyo, Japan).

human EP1 = target: T2, human EP1 (Homo sapiens, UniProt P34995); assay: Calcium flux assay, human EP1; type: cell-based; settings: CHO-Gα16 cells, PGE2 (EC80)
T2 construct: expressed in transfected cells; host or cells: CHO-Gα16
T2 sequence (P34995 1-402): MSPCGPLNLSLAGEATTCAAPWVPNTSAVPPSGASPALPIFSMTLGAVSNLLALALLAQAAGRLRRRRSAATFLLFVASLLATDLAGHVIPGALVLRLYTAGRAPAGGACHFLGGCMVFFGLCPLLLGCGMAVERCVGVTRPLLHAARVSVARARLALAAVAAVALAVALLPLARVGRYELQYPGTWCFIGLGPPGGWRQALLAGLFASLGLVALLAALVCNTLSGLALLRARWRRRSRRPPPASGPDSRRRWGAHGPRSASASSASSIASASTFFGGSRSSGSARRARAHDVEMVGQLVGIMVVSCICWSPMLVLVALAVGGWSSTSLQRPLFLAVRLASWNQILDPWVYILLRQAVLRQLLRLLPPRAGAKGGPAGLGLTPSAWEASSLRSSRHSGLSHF
Method: as §2

Chain of EP4 (P35408 whole entry): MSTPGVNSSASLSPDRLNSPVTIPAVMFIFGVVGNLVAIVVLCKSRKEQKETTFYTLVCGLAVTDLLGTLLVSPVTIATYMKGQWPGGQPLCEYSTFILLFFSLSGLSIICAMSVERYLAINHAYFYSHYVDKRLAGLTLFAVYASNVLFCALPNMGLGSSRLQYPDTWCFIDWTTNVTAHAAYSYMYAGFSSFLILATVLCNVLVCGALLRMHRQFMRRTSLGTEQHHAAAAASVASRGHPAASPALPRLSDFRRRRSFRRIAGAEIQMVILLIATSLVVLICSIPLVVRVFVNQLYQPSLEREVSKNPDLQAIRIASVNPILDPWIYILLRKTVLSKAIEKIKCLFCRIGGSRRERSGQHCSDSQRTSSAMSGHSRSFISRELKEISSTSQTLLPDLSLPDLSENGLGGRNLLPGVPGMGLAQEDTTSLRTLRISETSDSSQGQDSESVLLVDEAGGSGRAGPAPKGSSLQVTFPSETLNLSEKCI
T1 sequence (P43114 whole entry): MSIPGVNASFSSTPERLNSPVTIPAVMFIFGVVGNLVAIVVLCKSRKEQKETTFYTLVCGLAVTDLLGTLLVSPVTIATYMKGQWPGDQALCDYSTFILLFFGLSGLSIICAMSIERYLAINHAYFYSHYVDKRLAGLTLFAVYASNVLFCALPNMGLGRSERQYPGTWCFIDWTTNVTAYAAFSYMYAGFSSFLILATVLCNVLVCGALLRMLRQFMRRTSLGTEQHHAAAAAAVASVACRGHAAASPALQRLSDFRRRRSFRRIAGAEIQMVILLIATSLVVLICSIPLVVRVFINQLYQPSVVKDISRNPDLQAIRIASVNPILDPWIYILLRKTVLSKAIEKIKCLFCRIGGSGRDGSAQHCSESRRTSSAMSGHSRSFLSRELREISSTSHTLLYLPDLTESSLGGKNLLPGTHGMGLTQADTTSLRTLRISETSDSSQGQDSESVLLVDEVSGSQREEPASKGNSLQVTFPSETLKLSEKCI

**Q.** What does the source list for C[C@H](NC(=O)c1c(Cc2cccc(C(F)(F)F)c2)sc2c1CCOC2)c1ccc(C(=O)O)cc1 [L001]?
**A.** PGE2-driven YAP/TEAD reporter activity [1]: remarkably suppressed; migrated cells in the lower layer of the transwell (BxPC-3 cells [2]): reduced migrated cells; cell viability (Pan02 cells [3]): did not affect the cell viabilities; body weight loss [4]: barely found; IC50 (EP4): 0.00147 ± 2e-05 µM; antagonism efficacy on EP4 compared with E7046 (EP4; calcium flux assay): over 5 fold; PGE2-induced phosphorylation of ERK1/2 (ERK1/2 phosphorylation): significantly blocked; PGE2-driven YAP/TEAD reporter activity [5]: remarkably suppressed; IC50 (rat EP4): 0.0142 ± 0.00088 µM; PGE2-triggered wound closure (BxPC-3 cells [6]): significantly blocked; spheroid invasion morphology (filopodium-like protrusions) (Pan02 cells [7]): completely retracted PGE2-induced membrane surface projections; IC50 (human EP1): > 10 µM
